Reference: patent publication US6461997B1, “Triazole sulfones having herbicidal activity” (Monsanto Technology LLC, priority 1999, dated 2002)

Experiments:
[1] = tested on: LAMPU (purple deadnettle); assay: Pre-emergence herbicidal activity, cool season; format: in vivo, Lamium purpureum; details: lowest tested rate with 80% or greater inhibition; rates 300, 100, 30, 10 g/ha; about 14 days
Procedure, shortened: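 GR80 values derive from percent inhibition relative to untreated plants, read roughly 14 days after sowing and pre-emergence soil-surface treatment (compound in 50:50 acetone/water; rates typically 10, 30, 100, 300 g/ha). Warm-season weeds grew at 30/21° C day/night, cool-season ones at 18/13° C; an asterisk marks activity without reaching 80% at the highest rate.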

[2] = tested on: ECHCG (barnyardgrass); assay: Pre-plant incorporated (PPI) herbicidal activity, warm season; format: in vivo, Echinochloa crus-galli; details: for inhibition at 10 g/ha / inhibition at 30 g/ha / inhibition at 100 g/ha / inhibition at 300 g/ha / inhibition at 900 g/ha: Echinochloa crus-galli, read-out: Percent inhibition ECHCG; for inhibition at 10 g/ha / inhibition at 30 g/ha / inhibition at 100 g/ha / inhibition at 300 g/ha / inhibition at 900 g/ha / Percent inhibition ECHCG: PPI application; for PPI activity GR80, ECHCG: pre-plant incorporated, lowest tested rate with 80% or greater inhibition, about 14 days
Description: (§1) In another set of tests, the pre-plant incorporated (PPI) activity of compounds of this invention was evaluated on the same species as for the pre-emergence tests described above. In the PPI tests the following procedure, designed to simulate PPI application, was used.
(§2) A pre-prepared topsoil mixture (described above) was placed in a pot and compacted to a depth of 1.0 to 1.25 cm from the top of the pot. Seeds of each of several monocotyledonous and dicotyledonous annual plant species were placed on top of the soil. A sufficient quantity of soil to cover the seeds and level fill the pot was weighed into an open container. A known amount of the test compound was dissolved or suspended in an organic solvent and applied by spraying to this cover soil. The cover soil was thoroughly mixed to distribute the test compound throughout the cover soil, and was then applied as a cover layer over the seeds. Untreated soil was used as a cover layer for control pots. After treatment the plants were placed in a greenhouse where they received 0.64 cm of overhead irrigation. All subsequent watering consisted of a light overhead mist and/or subirrigation as needed for germination and growth. Tables 9 and 10 below relate to warm season plant species which were placed after pre-emergence treatment in a greenhouse with a 30/21° C. day/night temperature regime. Tables 11 and 12 below relates to cool season plant species placed after pre-emergence treatment in a greenhouse or growth chamber with an 18/13° C. day/night temperature regime. Only the compounds of Examples 1, 6, 8, 11, 13 and 15-20 were included in PPI tests.
(§3) Approximately 14 days after planting and treating, the plants were observed and herbicidal efficacy recorded as percent inhibition by comparison with untreated plants.

[3] = tested on: VERPE (creeping speedwell); assay: Pre-plant incorporated (PPI) herbicidal activity, cool season; format: in vivo, Veronica persicaria; details: for PPI activity GR80, VERPE: pre-plant incorporated, lowest tested rate with 80% or greater inhibition, about 14 days; for inhibition at 10 g/ha / inhibition at 30 g/ha / inhibition at 100 g/ha / inhibition at 300 g/ha / inhibition at 900 g/ha / Percent inhibition VERPE: weed, PPI application; for inhibition at 10 g/ha / inhibition at 30 g/ha / inhibition at 100 g/ha / inhibition at 300 g/ha / inhibition at 900 g/ha: read-out: Percent inhibition VERPE
Description: as §1, §2, §3

[4] = tested on: AEGCY (jointed goatgrass); assay: as above; format: in vivo, Aegilops cylindrica; details: for inhibition at 10 g/ha / inhibition at 30 g/ha / inhibition at 100 g/ha / inhibition at 300 g/ha / inhibition at 900 g/ha: Aegilops cylindrica, read-out: Percent inhibition AEGCY; for inhibition at 10 g/ha / inhibition at 30 g/ha / inhibition at 100 g/ha / inhibition at 300 g/ha / inhibition at 900 g/ha / Percent inhibition AEGCY: weed, PPI application; for PPI activity GR80, AEGCY: pre-plant incorporated, lowest tested rate with 80% or greater inhibition, about 14 days
Description: as §1, §2, §3

[5] = tested on: POAAN (annual bluegrass); assay: as above; format: in vivo, Poa annua; details: weed, PPI application; for inhibition at 10 g/ha / inhibition at 30 g/ha / inhibition at 100 g/ha / inhibition at 300 g/ha / inhibition at 900 g/ha: Poa annua, read-out: Percent inhibition POAAN
Description: as §1, §2, §3

[6] = tested on: AGRRE (quackgrass (seedling)); assay: Post-emergence herbicidal activity, cool season; format: in vivo, Elymus repens; details: abraded plants sprayed at 300, 100, 30 and 10 g/ha; about 14 days after treatment
Procedure, shortened: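 Post-emergence foliar spray; plants abraded (garnet 200w, ~850 kPa sandblast) before application. Rates 300/100/30/10 g/ha in 50:50 acetone:water, 3,100 l/ha, 511 kPa. Greenhouse 18/13° C. day/night; % inhibition vs abraded unsprayed controls at ~14 days after treatment, GR80 derived.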

Structure (SMILES): C=CCC(F)(F)S(=O)(=O)c1ncn(C(=O)N(CC)CC)n1 [Example 17, 1-(N,N-diethylcarbamoyl)-3-[(1,1-difluoro-3-butenyl)sulfonyl]-1,2,4-triazole]
- Pre-emergence activity GR80, LAMPU [1]: 100 g/ha
- inhibition at 10 g/ha ([2]; 10 g/ha): 40%
- inhibition at 30 g/ha ([2]; 30 g/ha): 95%
- inhibition at 100 g/ha ([2]; 100 g/ha): 100%
- inhibition at 300 g/ha ([2]; 300 g/ha): 100%
- inhibition at 900 g/ha ([2]; 900 g/ha): 100%
- PPI activity GR80, ECHCG [2]: 30 g/ha
- PPI activity GR80, VERPE [3]: 10 g/ha
- inhibition at 10 g/ha ([3]; 10 g/ha): 0%
- inhibition at 30 g/ha ([3]; 30 g/ha): 0%
- inhibition at 100 g/ha ([3]; 100 g/ha): 0%
- inhibition at 300 g/ha ([3]; 300 g/ha): 90%
- inhibition at 900 g/ha ([3]; 900 g/ha): 100%
- inhibition at 10 g/ha ([4]; 10 g/ha): 0%
- inhibition at 30 g/ha ([4]; 30 g/ha): 0%
- inhibition at 100 g/ha ([4]; 100 g/ha): 0%
- inhibition at 300 g/ha ([4]; 300 g/ha): 20%
- inhibition at 900 g/ha ([4]; 900 g/ha): 40%
- PPI activity GR80, AEGCY [4]: 100 g/ha
- inhibition at 10 g/ha ([5]; 10 g/ha): 10%
- inhibition at 30 g/ha ([5]; 30 g/ha): 60%
- inhibition at 100 g/ha ([5]; 100 g/ha): 70%
- inhibition at 300 g/ha ([5]; 300 g/ha): 95%
- inhibition at 900 g/ha ([5]; 900 g/ha): 100%
- Post-emergence activity GR80, AGRRE [6]: [empty]

Structure (SMILES): C=C(C)CC(F)(F)S(=O)(=O)c1ncn(C(=O)N(CC)CC)n1 [Example 18]
- Pre-emergence activity GR80, LAMPU [1]: 300 g/ha
- inhibition at 10 g/ha ([2]; 10 g/ha): 30%
- inhibition at 30 g/ha ([2]; 30 g/ha): 100%
- inhibition at 100 g/ha ([2]; 100 g/ha): 100%
- inhibition at 300 g/ha ([2]; 300 g/ha): 100%
- inhibition at 900 g/ha ([2]; 900 g/ha): 100%
- PPI activity GR80, ECHCG [2]: 30 g/ha
- PPI activity GR80, VERPE [3]: [empty]
- inhibition at 10 g/ha ([3]; 10 g/ha): 0%
- inhibition at 30 g/ha ([3]; 30 g/ha): 20%
- inhibition at 100 g/ha ([3]; 100 g/ha): 80%
- inhibition at 300 g/ha ([3]; 300 g/ha): 95%
- inhibition at 900 g/ha ([3]; 900 g/ha): 99%
- inhibition at 10 g/ha ([4]; 10 g/ha): 0%
- inhibition at 30 g/ha ([4]; 30 g/ha): 0%
- inhibition at 100 g/ha ([4]; 100 g/ha): 0%
- inhibition at 300 g/ha ([4]; 300 g/ha): 20%
- inhibition at 900 g/ha ([4]; 900 g/ha): 10%
- PPI activity GR80, AEGCY [4]: * (activity observed, at least at highest rate, but <80% inhibition)
- inhibition at 10 g/ha ([5]; 10 g/ha): 20%
- inhibition at 30 g/ha ([5]; 30 g/ha): 50%
- inhibition at 100 g/ha ([5]; 100 g/ha): 65%
- inhibition at 300 g/ha ([5]; 300 g/ha): 80%
- inhibition at 900 g/ha ([5]; 900 g/ha): 100%
- Post-emergence activity GR80, AGRRE [6]: [empty]

Structure (SMILES): C=C(Br)CC(F)(F)S(=O)(=O)c1ncn(C(=O)N(CC)CC)n1 [Example 19]
- Pre-emergence activity GR80, LAMPU [1]: 30 g/ha
- inhibition at 10 g/ha ([2]; 10 g/ha): 20%
- inhibition at 30 g/ha ([2]; 30 g/ha): 20%
- inhibition at 100 g/ha ([2]; 100 g/ha): 100%
- inhibition at 300 g/ha ([2]; 300 g/ha): 100%
- inhibition at 900 g/ha ([2]; 900 g/ha): 100%
- PPI activity GR80, ECHCG [2]: 30 g/ha
- PPI activity GR80, VERPE [3]: [empty]
- inhibition at 10 g/ha ([3]; 10 g/ha): 0%
- inhibition at 30 g/ha ([3]; 30 g/ha): 40%
- inhibition at 100 g/ha ([3]; 100 g/ha): 20%
- inhibition at 300 g/ha ([3]; 300 g/ha): 20%
- inhibition at 900 g/ha ([3]; 900 g/ha): 99%
- inhibition at 10 g/ha ([4]; 10 g/ha): 0%
- inhibition at 30 g/ha ([4]; 30 g/ha): 0%
- inhibition at 100 g/ha ([4]; 100 g/ha): 20%
- inhibition at 300 g/ha ([4]; 300 g/ha): 50%
- inhibition at 900 g/ha ([4]; 900 g/ha): 20%
- PPI activity GR80, AEGCY [4]: 300 g/ha
- inhibition at 10 g/ha ([5]; 10 g/ha): 0%
- inhibition at 30 g/ha ([5]; 30 g/ha): 0%
- inhibition at 100 g/ha ([5]; 100 g/ha): 10%
- inhibition at 300 g/ha ([5]; 300 g/ha): 100%
- inhibition at 900 g/ha ([5]; 900 g/ha): 100%
- Post-emergence activity GR80, AGRRE [6]: [empty]

Structure (SMILES): C=C(CC(F)(F)S(=O)(=O)c1ncn(C(=O)N(CC)CC)n1)C[Si](C)(C)C [Example 20]
- Pre-emergence activity GR80, LAMPU [1]: 100 g/ha
- Percent inhibition ECHCG ([2]; 10 g/ha): 0%
- Percent inhibition ECHCG ([2]; 30 g/ha): 0%
- Percent inhibition ECHCG ([2]; 100 g/ha): 20%
- Percent inhibition ECHCG ([2]; 300 g/ha): 70%
- Percent inhibition ECHCG ([2]; 900 g/ha): 100%
- PPI activity GR80, ECHCG [2]: 300 g/ha
- PPI activity GR80, VERPE [3]: 30 g/ha
- Percent inhibition VERPE ([3]; 10 g/ha): 0%
- Percent inhibition VERPE ([3]; 30 g/ha): 90%
- Percent inhibition VERPE ([3]; 100 g/ha): 50%
- Percent inhibition VERPE ([3]; 300 g/ha): 90%
- Percent inhibition VERPE ([3]; 900 g/ha): 95%
- PPI activity GR80, AEGCY [4]: * (activity observed, at least at highest rate, but <80% inhibition)
- Percent inhibition AEGCY ([4]; 10 g/ha): 0%
- Percent inhibition AEGCY ([4]; 30 g/ha): 0%
- Percent inhibition AEGCY ([4]; 100 g/ha): 0%
- Percent inhibition AEGCY ([4]; 300 g/ha): 0%
- Percent inhibition AEGCY ([4]; 900 g/ha): 0%
- Percent inhibition POAAN ([5]; 10 g/ha): 0%
- Percent inhibition POAAN ([5]; 30 g/ha): 30%
- Percent inhibition POAAN ([5]; 100 g/ha): 60%
- Percent inhibition POAAN ([5]; 300 g/ha): 90%
- Percent inhibition POAAN ([5]; 900 g/ha): 99%
- Post-emergence activity GR80, AGRRE [6]: [empty]
